Tested on: Human CD34+ hematopoietic stem cells (HSCs) / erythroid progenitor cell cultures
Assay: Effect of myo-inositol on erythroid cell growth and enucleation (three-stage culture, maturation phase)
Settings: third culture medium (maturation phase, 24 well plate) supplemented with an additional 1 g/L myo-inositol vs not supplemented control (basal IMDM 0.0072 g/L), FACS-based cell counting
Description: The effect of myo-inositol on erythroid progenitor cell cultures was examined. Human CD34^+ hematopoietic stem cells (HSCs) were cultured in a three-stage process to generate enucleated erythroid cells. In the first stage, the CD34+ HSCs were expanded in a T-flask in a first culture medium containing IMDM supplemented recombinant human insulin, recombinant human transferrin, recombinant human SCF, recombinant IL-3, recombinant Flt-3 ligand, and recombinant human IL-3. Subsequently, cells were transduced with a lentiviral vector encoding phenylalanine ammonia lyase. After transduction, cells were cultured in a 50 L bioreactor culture vessel containing a second culture medium containing IMDM, supplemented with recombinant human erythropoietin, recombinant human SCF, recombinant human IL3, recombinant human insulin, dexamethasone, and recombinant human transferrin. For the third stage of the process (maturation phase), an aliquot of cells were seeded into 24 well plate containing a third culture medium containing IMDM supplemented with recombinant human EPO, recombinant human SCF, recombinant human insulin, recombinant transferrin, human AB serum, and human plasma. […] Periodic sampling and cell counting was performed during the third stage using a fluorescence-activated cell sorting-based cell counter.

## O[C@H]1[C@H](O)[C@@H](O)[C@H](O)[C@@H](O)[C@H]1O [myo-inositol]
FIG. 1
  total cell density of erythroid cells: significantly increase
FIG. 2
  enucleated erythroid cell density: significantly increase

From patent US20210130780A1, “METHODS OF GENERATING ENUCLEATED ERYTHROID CELLS USING MYO-INOSITOL” (Rubius Therapeutics, Inc., priority 2019, published 2021)
